Source: US20250325552A1, “SUBSTITUTED THIADIAZOLYL DERIVATIVES AS DNA POLYMERASE THETA INHIBITORS” (IDEAYA Biosciences, Inc., priority 2020, published 2025)

These compounds were tested against Polθ theta (1-899) (hPolQ) (Homo sapiens (Human), UniProt O75417) (assay: Biological Assay 1: Polθ ATPase activity, NADH oxidation-coupled enzymatic assay (10 nM enzyme, 30 min)). Settings: Polθ (1-899) 10 nM, 100 μM ATP, 300 nM dT50 ssDNA; Examples 1 to 268; read-out: ATPase NADH coupling:Standard Screening:hPolQ IC50.
Polθ theta (1-899) (hPolQ), sequence (O75417 1-899): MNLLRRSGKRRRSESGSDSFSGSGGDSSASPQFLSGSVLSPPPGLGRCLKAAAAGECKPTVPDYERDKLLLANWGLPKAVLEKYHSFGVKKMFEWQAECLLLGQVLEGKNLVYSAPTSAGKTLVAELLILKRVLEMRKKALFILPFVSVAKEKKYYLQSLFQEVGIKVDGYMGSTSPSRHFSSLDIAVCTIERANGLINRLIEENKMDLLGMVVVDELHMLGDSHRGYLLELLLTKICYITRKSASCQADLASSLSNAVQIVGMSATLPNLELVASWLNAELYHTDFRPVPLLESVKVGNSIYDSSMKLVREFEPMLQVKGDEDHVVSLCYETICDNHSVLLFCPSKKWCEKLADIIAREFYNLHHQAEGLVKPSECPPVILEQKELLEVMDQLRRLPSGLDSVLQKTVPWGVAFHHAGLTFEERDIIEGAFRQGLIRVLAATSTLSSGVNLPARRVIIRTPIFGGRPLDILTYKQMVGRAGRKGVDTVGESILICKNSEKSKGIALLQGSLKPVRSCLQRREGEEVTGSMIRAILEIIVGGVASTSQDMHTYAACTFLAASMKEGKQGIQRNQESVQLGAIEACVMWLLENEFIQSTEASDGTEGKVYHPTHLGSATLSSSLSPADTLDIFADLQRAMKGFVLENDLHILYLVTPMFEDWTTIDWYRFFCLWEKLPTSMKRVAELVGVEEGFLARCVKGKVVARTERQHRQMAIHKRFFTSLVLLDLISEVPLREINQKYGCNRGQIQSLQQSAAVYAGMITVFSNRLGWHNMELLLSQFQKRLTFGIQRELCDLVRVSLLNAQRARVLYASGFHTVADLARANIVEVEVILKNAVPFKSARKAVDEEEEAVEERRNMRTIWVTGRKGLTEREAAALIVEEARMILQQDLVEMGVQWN
Assay type: biochemical
Protocol: The ability of the compounds of Formula (I), (II), (III), (IV), or Table 1 (Examples 1 to Example 268) to inhibit ATPase activity of Polθ theta (1-899) was determined using the assay described below.
Polθ Theta ATPase activity was determined by measuring the rate of ATP turn over in a NADH oxidation-coupled enzymatic assay. 10-point dilution series of compounds were used in a 384 well format for the inhibition assays. Polθ theta (1-899) (10 nM) in assay buffer (20 mM Tris HCl (pH 7.80), 80 mM KCl, 10 mM MgCl2, 1 mM DTT, 0.01% BSA, 0.01% Tween, 5% glycerol) was transferred to the test wells (20 μL), except the low control wells (20 μL of assay buffer was added to the low control wells). The plate was then incubated at room temperature for 15 min. An equal volume (20 μL) of 100 μM ATP, 300 nM dT50 (single-stranded DNA (ssDNA) containing 50 thymine bases), 300 μM NADH, 6 mM PEP, 10 U/mL lactate dehydrogenase and U/mL pyruvate kinase in assay buffer was added to all the test wells. The plate was then centrifuged at 1000 rpm for 1 min. The reaction was monitored for 30 min by measuring absorbance (λ=340 nm) in a Tecan Spark multimode plate reader every minute. The high control (DMSO with enzyme) with low absorbance intensity represents no inhibition of ATPase reaction while the low control (DMSO with buffer) with high absorbance intensity represents full inhibition of ATPase activity. Slope of the reaction progress curves were used to calculate the rate of ATP hydrolysis. The rates were used to determine the percent inhibition using a four-parameter inhibition model to generate IC50, Hill slope and max inhibition.

| Compound | IC50 [nM] |
| --- | --- |
| N-(5-(((S)-1,4-dioxan-2-yl)methoxy)-1,3,4-thiadiazol-2-yl)-3′-fluoro-5′-methoxy-2′,6-dimethyl-(4,4′-bipyridine)-3-carboxamide [Example 241] | ≤ 200 |
| COc1cccnc1-c1cc(C)ncc1C(=O)Nc1nnc(OCc2ccc(Cl)cn2)s1 [Example 120, N-(5-((5-chloropyridin-2-yl)methoxy)-1,3,4-thiadiazol-2-yl)-3-methoxy-6′-methyl-(2,4′-bipyridine)-3′-carboxamide] | 200 to 500 |
| Cc1cc(-c2c(F)cccc2OC(F)F)c(C(=O)Nc2nnc(OCc3ccc([C@@H](C)O)cn3)s2)cn1 [Example 57, 4-(2-(difluoromethoxy)-6-fluorophenyl)-N-(5-((5-((R)-1-hydroxyethyl)pyridin-2-yl)methoxy)-1,3,4-thiadiazol-2-yl)-6-methylnicotinamide] | ≤ 200 |
| COc1cnc(C)cc1-c1cc(C)ncc1C(=O)Nc1nnc(OCc2cnc(CO)cn2)s1 [Example 146, N-(5-((5-(hydroxymethyl)pyrazin-2-yl)methoxy)-1,3,4-thiadiazol-2-yl)-5′-methoxy-2′,6-dimethyl-[4,4′-bipyridine]-3-carboxamide] | ≤ 200 |
| COc1cnc(Br)cc1-c1cc(C)ncc1C(=O)Nc1nnc(OC[C@@H]2CCOC2)s1 (single isomer, unassigned) [Example 245] | ≤ 200 |
| COc1cccc(F)c1-c1cc(C)ncc1C(=O)Nc1nnc(OCC23CCC(O)(CC2)CC3)s1 [Example 66, 4-(2-fluoro-6-methoxyphenyl)-N-(5-((4-hydroxybicyclo(2.2.2)octan-1-yl)methoxy)-1,3,4-thiadiazol-2-yl)-6-methylnicotinamide] | ≤ 200 |
| COc1cccc(F)c1-c1cc(C)ncc1C(=O)Nc1nnc(OCc2ccc([C@@H](C)O)cn2)s1 [Example 41, 4-(2-fluoro-6-methoxyphenyl)-N-(5-((5-((R)-1-hydroxyethyl)pyridin-2-yl)methoxy)-1,3,4-thiadiazol-2-yl)-6-methylnicotinamide] | ≤ 200 |
| COc1cnc(Cl)cc1-c1cc(C)ncc1C(=O)Nc1nnc(OC[C@H]2CC[C@@](C)(O)CC2)s1 [Example 215, 2′-chloro-N-(5-(((1s,4s)-4-hydroxy-4-methylcyclohexyl)methoxy)-1,3,4-thiadiazol-2-yl)-5′-methoxy-6-methyl-(4,4′-bipyridine)-3-carboxamide] | ≤ 200 |
| COc1cccc(F)c1-c1cnncc1C(=O)Nc1nnc(OCc2ccc(Cl)cn2)s1 [Example 64, N-(5-((5-chloropyridin-2-yl)methoxy)-1,3,4-thiadiazol-2-yl)-5-(2-fluoro-6-methoxyphenyl)pyridazine-4-carboxamide] | ≤ 200 |
| COc1ccccc1-c1cc(C)ncc1C(=O)Nc1nnc(OCc2ccc(C3(C(=O)O)CC3)cn2)s1 [compound 4, 1-(6-(((5-(4-(2-methoxyphenyl)-6-methylnicotinamido)-1,3,4-thiadiazol-2-yl)oxy)methyl)pyridin-3-yl)cyclopropane-1-carboxylic acid] | ≤ 200 |
| CN=[S@](C)(=O)c1ccc(COc2nnc(NC(=O)c3cnc(C)cc3-c3c(F)cccc3OC)s2)cc1 [Example 154, N-(5-((4-((R)—N,S-dimethylsulfonimidoyl)benzyl)oxy)-1,3,4-thiadiazol-2-yl)-4-(2-fluoro-6-methoxyphenyl)-6-methylnicotinamide] | ≤ 200 |
| COc1cnc(C)cc1-c1cc(C)ncc1C(=O)Nc1nnc(OC[C@H]2CC[C@H](O)CC2)s1 [Example 100, N-(5-(((1r,4r)-4-hydroxycyclohexyl)methoxy)-1,3,4-thiadiazol-2-yl)-5′-methoxy-2′,6-dimethyl-[4,4′-bipyridine]-3-carboxamide] | ≤ 200 |
| COc1ccc(Cl)cc1-c1cc(C)ncc1C(=O)Nc1nnc(OCc2cnc(CO)cn2)s1 [Example 133, 4-(5-chloro-2-methoxyphenyl)-N-(5-((5-(hydroxymethyl)pyrazin-2-yl)methoxy)-1,3,4-thiadiazol-2-yl)-6-methylpyridine-3-carboxamide] | ≤ 200 |
| COc1cnc(Cl)cc1-c1cc(C)ncc1C(=O)Nc1nnc(OCC2CCCC2O)s1 (stereo not drawn) [Example 261, 2′-chloro-N-(5-((2-hydroxycyclopentyl)methoxy)-1,3,4-thiadiazol-2-yl)-5′-methoxy-6-methyl-(4,4′-bipyridine)-3-carboxamide] | ≤ 200 |

Results, then the compound that gave them:

| IC50 [nM] | Compound |
| --- | --- |
| ≤ 200 | COc1ccc(Cl)cc1-c1cc(C)ncc1C(=O)Nc1nnc(OCc2ccc([S@](C)(=N)=O)cc2)s1 [Example 122, (R)-4-(5-chloro-2-methoxyphenyl)-6-methyl-N-(5-((4-(S-methylsulfonimidoyl)benzyl)oxy)-1,3,4-thiadiazol-2-yl)nicotinamide] |
| ≤ 200 | COc1cnc(C)cc1-c1cc(C)ncc1C(=O)Nc1nnc(OCC23CC(O)(C2)C3)s1 [Example 98, N-(5-((3-hydroxybicyclo(1.1.1)pentan-1-yl)methoxy)-1,3,4-thiadiazol-2-yl)-5′-methoxy-2′,6-dimethyl-(4,4′-bipyridine)-3-carboxamide] |
| ≤ 200 | COc1cnc(Cl)cc1-c1cc(C)ncc1C(=O)Nc1nnc(OC[C@H]2CC[C@@H](F)CC2)s1 [Example 196, 2′-chloro-N-(5-(((1s,4s)-4-fluorocyclohexyl)methoxy)-1,3,4-thiadiazol-2-yl)-5′-methoxy-6-methyl-(4,4′-bipyridine)-3-carboxamide] |
| 1000 to 10000 | COc1ccccc1-c1cc(C)ncc1C(=O)Nc1nnc(O[C@H](C)c2ccc(Cl)cn2)s1 [Example 12, (R)—N-(5-(1-(5-chloropyridin-2-yl)ethoxy)-1,3,4-thiadiazol-2-yl)-4-(2-methoxyphenyl)-6-methylnicotinamide] |
| ≤ 200 | COc1cccc(F)c1-c1cc(C)ncc1C(=O)Nc1nnc(OCc2ccc3c(n2)OCCO3)s1 [Example 35, N-(5-(2H,3H-(1,4)dioxino(2,3-b)pyridin-6-ylmethoxy)-1,3,4-thiadiazol-2-yl)-4-(2-fluoro-6-methoxyphenyl)-6-methylpyridine-3-carboxamide] |
| ≤ 200 | COc1c(-c2cc(C)ncc2C(=O)Nc2nnc(OCc3ccc(Cl)cn3)s2)ccnc1C#N [Example 85, N-(5-((5-chloropyridin-2-yl)methoxy)-1,3,4-thiadiazol-2-yl)-2′-cyano-3′-methoxy-6-methyl-[4,4′-bipyridine]-3-carboxamide] |
| ≤ 200 | COc1cnc(Cl)cc1-c1cc(C)ncc1C(=O)Nc1nnc(OCC2COC(CO)CO2)s1 (stereo not drawn) [Example 246, 2′-chloro-N-(5-((5-(hydroxymethyl)-1,4-dioxan-2-yl)methoxy)-1,3,4-thiadiazol-2-yl)-5′-methoxy-6-methyl-(4,4′-bipyridine)-3-carboxamide] |
| ≤ 200 | COc1cnc(Cl)cc1-c1cc(C)ncc1C(=O)Nc1nnc(OC[C@@H]2CO[C@H](C)C2)s1 (single isomer, unassigned) [Example 253] |
| ≤ 200 | COc1cccc(F)c1-c1cc(C)ncc1C(=O)Nc1nnc(OCc2ncc(C(C)(C)O)cc2F)s1 [Example 87, N-(5-((3-fluoro-5-(2-hydroxypropan-2-yl)pyridin-2-yl)methoxy)-1,3,4-thiadiazol-2-yl)-4-(2-fluoro-6-methoxyphenyl)-6-methylpyridine-3-carboxamide] |
| ≤ 200 | COc1cnc(Cl)cc1-c1cc(C)ncc1C(=O)Nc1nnc(OC[C@@H]2COCC(C)(C)O2)s1 (single isomer, unassigned) [Example 220] |
| ≤ 200 | COc1cnc(Cl)cc1-c1cc(C)ncc1C(=O)Nc1nnc(OCc2ccc(OC(F)F)cn2)s1 [Example 113, 2′-chloro-N-(5-((5-(difluoromethoxy)pyridin-2-yl)methoxy)-1,3,4-thiadiazol-2-yl)-5′-methoxy-6-methyl-(4,4′-bipyridine)-3-carboxamide] |
| ≤ 200 | COc1cccc(F)c1-c1cc(C)ncc1C(=O)Nc1nnc(OCC23CCC(F)(CC2)CC3)s1 [Example 65, 4-(2-fluoro-6-methoxyphenyl)-N-(5-((4-fluorobicyclo(2.2.2)octan-1-yl)methoxy)-1,3,4-thiadiazol-2-yl)-6-methylnicotinamide] |
| ≤ 200 | COc1cnc(Cl)cc1-c1cc(C)ncc1C(=O)Nc1nnc(OC[C@H]2COC3(CCC3)C2)s1 (single isomer, unassigned) [Example 227] |
| ≤ 200 | Cc1cc(-c2cc(Cl)ncc2OC(F)F)c(C(=O)Nc2nnc(OC[C@H]3CCOC3)s2)cn1 (single isomer, unassigned) [Example 257] |
| ≤ 200 | COc1cccc(F)c1-c1cc(C)ncc1C(=O)Nc1nnc(OCc2ccc3c(n2)CCC[C@H]3O)s1 [Example 117, 4-(2-fluoro-6-methoxyphenyl)-N-(5-(((R)-5-hydroxy-5,6,7,8-tetrahydroquinolin-2-yl)methoxy)-1,3,4-thiadiazol-2-yl)-6-methylnicotinamide] |
| ≤ 200 | COc1cnc(Cl)cc1-c1cc(C)ncc1C(=O)Nc1nnc(OC[C@H]2COC(C)(C)CO2)s1 (single isomer, unassigned) [Example 223] |
